Assay [1] relates to DNA damage-induced senescent cells (SEN) and oncogene-induced senescent cells (SEN (OIS)) of human diploid fibroblasts (IMR90, BJ). Put plainly: SASP factor and senescence marker gene expression (qRT-PCR) in senescent cell models. Type of assay: cell-based. Conditions: for expression of CDKN2A or CDKN1A: senescent cells; for expression of SASP genes (IL1A, IL1B): senescent cells (SEN), cholesterol depletion, cholesterol stimulation or lovastatin treatment. As to the method: (§1) DNA damage-induced senescence was induced in human diploid fibroblasts (IMR90, BJ) by treatment with ionizing radiation (12 Gy) or bleomycin (10 μg/ml, for 24 hours). Specifically, IMR90 and BJ cells expressing hTERT (DNA damage-induced senescence; SEN), IMR90 cells co-expressing hTERT and H-RasV12 [oncogene-induced senescence; SEN (OIS)], and replication-exhausted [replicative senescent cells; SEN (REP)] IMR90 cells were prepared. Normal proliferating cells (PRO) were used as the control.
To investigate the functional consequences of age-related changes in cholesterol levels, cellular cholesterol was depleted using methyl-β-cyclodextrin (MβCD), and multiple senescence markers were examined during DNA damage-induced aging, including senescence-associated β-galactosidase (SA-β-Gal) activity, cell cycle arrest, and expression of senescence-associated secretory phenotype (SASP) factors.
To specifically confirm the effect of increased expression of lysosomal ABCA1 on SASP activity, experiments were conducted using probucol, an ABCA1 modulator that has been reported to limit its localization to intracellular compartments including lysosomes, and glyburide, a broad-spectrum inhibitor of the ABC transport protein family that promotes channel closure of ABC transporters. The prepared senescent cell models were treated with probucol (10 μM) and/or glyburide (75 μM), and immunoblotting analysis was performed on lysosome immunoprecipitates (LysoIP).
(Quantitative PCR measures a nucleic acid by following its amplification.)

For assay [2], the target named is T1, lysosomal ABCA1 (Homo sapiens, UniProt O95477).
T1 construct: endogenous ABCA1 was abundantly present in lysosomes; endogenous in cells; host or cells: senescent human diploid fibroblasts (IMR90, BJ; hTERT-expressing, DNA damage-induced senescence)
Put plainly: immunoblotting of lysosome immunoprecipitates (LysoIP) in senescent cells. Type of assay: cell-based. Conditions: senescent cells (SEN); probucol 10 μM, glyburide 75 μM. The procedure: as §1, with “control. It was analyzed how ABCA1, which mediates cholesterol transport at the plasma membrane, is involved in cholesterol accumulation. […] The prepared senescent cell models were treated with probucol (10 μM) and/or glyburide (75 μM), and immunoblotting analysis was performed on lysosome immunoprecipitates (LysoIP).” for “control.”

For assay [3], the system named is mouse primary cultured chondrocytes (SEN). Put plainly: SASP regulation in senescent mouse primary cultured chondrocytes (SEN). Type of assay: cell-based. To be noted: probucol 10 μM, glyburide 75 μM, lovastatin 2 μM. As to the method: Mouse primary cultured chondrocytes were isolated from the femoral condyle and tibial plateau of 5-day-old ICR mice.
The ABCA1-deficient mouse primary chondrocyte model was prepared using siRNAs of SEQ ID NOs: 5 to 8. • ABCA1 siRNA #1: SEQ ID NO. 5 • ABCA1 siRNA #2: SEQ ID NO. 6 • ABCA1 siRNA #3: SEQ ID NO. 7 • ABCA1 siRNA #4: SEQ ID NO. 8
Senescence of chondrocytes promotes age-related musculoskeletal disorders. The correlation between cholesterol metabolism and ABCA1 was analyzed in a DNA damage-induced aging model (SEN) of mouse primary cultured chondrocytes isolated from the femoral condyles and tibial plateaus of 5-day-old ICR mice.
When ABCA1 was depleted in mouse primary cultured chondrocytes (SEN), the expression of SASP genes, including Mmp3, Mmp13 and Cxcl1, was suppressed, while the expression of Cdkn2a remained unchanged (FIG. 11B). […] Induction of cholesterol depletion inhibited the sustained activation pattern of mTORC1 (FIG. 11D), which was consistent with the results from the senescent cell model (in vitro) in Example 1. Therefore, it was confirmed that the lysosomal ABCA1 gene is a major factor in SASP regulation in vivo.

The test system of assay [4] is male mice subjected to DMM surgery (post-traumatic osteoarthritis). Put plainly: post-traumatic osteoarthritis progression after DMM surgery, intra-articular injection. Conditions: for osteoarthritis progression / cartilage destruction in knee joints (Safranin O staining) / expression levels of SASP factors (IL6, MMP13) and senescence markers (p16, nuclear HMGB1) / osteoarthritis-related pain symptoms / pain indicators: intra-articular; for osteoarthritis progression / cartilage destruction in knee joints (Safranin O staining): probucol 200 μM 10 μl weekly for 6 weeks, hydrogel with 3 mM glyburide 10 μl every 10 days for 10 weeks; for expression levels of SASP factors (IL6, MMP13) and senescence markers (p16, nuclear HMGB1) / osteoarthritis-related pain symptoms / pain indicators: probucol 200 μM weekly for 6 weeks, 3 mM glyburide hydrogel every 10 days for 10 weeks. The assay is classed as in vivo, mouse. As to the method: In the case of mice, male (C57BL/6J) mice were used since estrogen in female mice may influence osteoarthritis progression and serve as a confounding factor. Post-traumatic osteoarthritis was induced in 12-week-old male mice by destabilization of the medial meniscus (DMM) surgery. To investigate the role of lysosomal cholesterol partitioning regulated by ABCA1 in age-related inflammation in vivo, ABCA1 modulators were administered to male mice subjected to DMM surgery, and their effects on the progression of post-traumatic osteoarthritis were observed. Male mice subjected to either DMM surgery or sham surgery were intra-articularly injected with 10 μl of probucol (200 μM) dissolved in DMSO once a week for 6 weeks, or with 10 μl of PBS-suspended hydrogel containing 3 mM glyburide (PBS:hydrogel=1:1) every 10 days for 10 weeks. After the treatment period, the mice were sacrificed.

In assay [5] the test system is senescence-induced cells (IMR90, BJ). Put plainly: cholesterol measurement (Filipin staining, enzymatic measurement) in senescent cells. Type of assay: cell-based, human. The procedure: as §1, with “control. […] The prepared senescent cell models were treated with probucol (10 μM) and/or glyburide (75 μM), and immunoblotting analysis was performed on lysosome immunoprecipitates (LysoIP).” for “control.”

Assay [6] deals with mTORC1. Put plainly: mTORC1 activity in senescent cells. The assay is classed as cell-based, human. As to the method:
as §1, with “control. […] The prepared senescent cell models were treated with probucol (10 μM) and/or glyburide (75 μM), and immunoblotting analysis was performed on lysosome immunoprecipitates (LysoIP).” for “control.”

The mark [7] stands for this setting: SEN and SEN (OIS), glyburide 75 μM.
The mark [8] stands for this setting: DNA damage-induced senescent cells (SEN) lacking ABCA1, probucol 10 μM.
[9] abbreviates: intra-articular probucol 200 μM weekly for 6 weeks.

T1 sequence (O95477 whole entry): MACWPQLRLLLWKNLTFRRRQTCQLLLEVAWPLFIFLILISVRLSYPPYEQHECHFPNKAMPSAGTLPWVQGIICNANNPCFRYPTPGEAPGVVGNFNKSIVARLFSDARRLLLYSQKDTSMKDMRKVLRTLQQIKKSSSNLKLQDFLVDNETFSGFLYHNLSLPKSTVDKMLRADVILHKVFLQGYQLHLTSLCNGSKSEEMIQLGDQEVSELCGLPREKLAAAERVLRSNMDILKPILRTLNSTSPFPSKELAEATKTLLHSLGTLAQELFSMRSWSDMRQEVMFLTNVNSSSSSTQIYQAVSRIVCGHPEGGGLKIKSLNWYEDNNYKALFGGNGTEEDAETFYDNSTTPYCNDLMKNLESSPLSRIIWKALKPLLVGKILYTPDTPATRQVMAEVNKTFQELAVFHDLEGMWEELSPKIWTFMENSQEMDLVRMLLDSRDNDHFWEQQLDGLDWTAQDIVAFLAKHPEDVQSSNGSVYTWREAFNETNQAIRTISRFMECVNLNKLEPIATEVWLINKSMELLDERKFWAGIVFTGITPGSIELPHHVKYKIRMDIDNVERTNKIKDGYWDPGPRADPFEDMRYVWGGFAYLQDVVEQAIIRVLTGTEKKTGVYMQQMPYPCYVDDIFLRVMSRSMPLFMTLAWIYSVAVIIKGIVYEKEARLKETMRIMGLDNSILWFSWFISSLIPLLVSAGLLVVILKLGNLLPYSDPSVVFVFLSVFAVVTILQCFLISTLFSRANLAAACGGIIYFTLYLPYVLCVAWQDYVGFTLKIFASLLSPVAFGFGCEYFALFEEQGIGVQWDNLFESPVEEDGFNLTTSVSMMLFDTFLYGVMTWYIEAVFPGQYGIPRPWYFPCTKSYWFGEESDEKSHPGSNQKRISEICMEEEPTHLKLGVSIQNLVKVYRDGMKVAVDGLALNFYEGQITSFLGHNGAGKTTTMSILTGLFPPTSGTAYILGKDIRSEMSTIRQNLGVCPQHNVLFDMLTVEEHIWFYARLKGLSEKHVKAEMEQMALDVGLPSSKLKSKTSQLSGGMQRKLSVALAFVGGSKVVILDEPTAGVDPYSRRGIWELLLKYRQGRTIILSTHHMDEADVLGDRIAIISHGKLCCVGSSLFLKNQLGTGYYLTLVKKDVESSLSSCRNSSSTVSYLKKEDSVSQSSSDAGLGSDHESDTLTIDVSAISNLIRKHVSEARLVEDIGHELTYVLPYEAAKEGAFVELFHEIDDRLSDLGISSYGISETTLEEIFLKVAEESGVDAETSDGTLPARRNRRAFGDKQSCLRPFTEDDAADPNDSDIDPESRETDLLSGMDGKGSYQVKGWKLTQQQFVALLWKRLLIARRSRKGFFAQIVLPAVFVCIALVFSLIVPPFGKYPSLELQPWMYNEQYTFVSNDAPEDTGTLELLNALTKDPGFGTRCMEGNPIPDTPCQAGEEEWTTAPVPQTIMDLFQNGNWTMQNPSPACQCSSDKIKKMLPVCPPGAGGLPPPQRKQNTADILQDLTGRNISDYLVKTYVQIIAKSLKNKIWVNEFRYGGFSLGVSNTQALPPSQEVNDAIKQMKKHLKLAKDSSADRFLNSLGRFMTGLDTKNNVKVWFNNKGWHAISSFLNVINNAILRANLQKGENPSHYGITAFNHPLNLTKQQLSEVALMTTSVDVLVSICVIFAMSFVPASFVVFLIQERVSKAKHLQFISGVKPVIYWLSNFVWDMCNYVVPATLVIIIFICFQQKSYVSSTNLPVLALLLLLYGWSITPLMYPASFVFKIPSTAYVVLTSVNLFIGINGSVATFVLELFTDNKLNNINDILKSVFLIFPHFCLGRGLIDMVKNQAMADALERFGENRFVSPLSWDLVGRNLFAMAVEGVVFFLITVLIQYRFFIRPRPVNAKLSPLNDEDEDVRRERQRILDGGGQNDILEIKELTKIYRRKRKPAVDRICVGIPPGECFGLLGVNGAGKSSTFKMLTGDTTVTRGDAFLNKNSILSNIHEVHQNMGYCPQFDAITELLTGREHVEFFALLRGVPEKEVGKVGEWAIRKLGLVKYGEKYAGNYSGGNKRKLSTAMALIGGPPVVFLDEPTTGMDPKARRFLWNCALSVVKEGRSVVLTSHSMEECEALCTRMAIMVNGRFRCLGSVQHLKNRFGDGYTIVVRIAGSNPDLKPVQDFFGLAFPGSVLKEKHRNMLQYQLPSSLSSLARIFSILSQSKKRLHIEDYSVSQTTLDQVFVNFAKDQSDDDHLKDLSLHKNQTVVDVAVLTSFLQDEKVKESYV

For `COc1ccc(Cl)cc1C(=O)NCCc1ccc(S(=O)(=O)NC(=O)NC2CCCCC2)cc1` [glyburide], the SASP activity entry in assay [1] (setting [7]) was “inhibited”. In assay [1] (senescence-induced cells treated with probucol plus test substance), the “SASP activation / SASP factor expression induced by probucol” value is listed as “completely suppressed”. In addition, the “expression of lysosomal ABCA1 (LysoIP immunoblot)” value in assay [2] is reported as “decrease”. The “SASP factors (Mmp3, Mmp13, Cxcl1)” value in assay [3] was “suppressed”. In addition, in assay [4], the “osteoarthritis progression / cartilage destruction in knee joints (Safranin O staining)” value was “alleviated”; the “expression levels of SASP factors (IL6, MMP13) and senescence markers (p16, nuclear HMGB1)” value is reported as “decreased”; the “osteoarthritis-related pain symptoms / pain indicators” value is reported as “amelioration”. In assay [5] (setting [7]), the lysosomal cholesterol accumulation entry is given as “inhibited”.
Consider `CC(C)CCC[C@@H](C)[C@H]1CC[C@H]2[C@@H]3CC=C4C[C@@H](O)CC[C@]4(C)[C@H]3CC[C@]12C` [cholesterol], for which, in assay [1], the “expression of CDKN2A or CDKN1A” value was “little effect” and the “expression of SASP genes (IL1A, IL1B)” value is listed as “significantly increased”.
Consider `CC[C@H](C)C(=O)O[C@H]1C[C@@H](C)C=C2C=C[C@H](C)[C@H](CC[C@@H]3C[C@@H](O)CC(=O)O3)[C@H]21` [lovastatin], for which, in assay [1], the “expression of CDKN2A or CDKN1A” value is reported as “without affecting” and the “expression of SASP genes (IL1A, IL1B)” value was “suppressed”. In addition, the “expression of the cholesterol transporter gene ABCA1” value in assay [1] (senescent cells vs normal proliferating cells (PRO)) is “also suppressed”. The “SASP factors (Mmp3, Mmp13, Cxcl1)” value in assay [3] is recorded as “suppressed”.
For methyl-β-cyclodextrin [MBCD], in assay [1], the “expression of SASP genes (IL1A, IL1B)” value is listed as “reduced”. The cholesterol levels entry in assay [5] (senescence-induced cells, cholesterol-depleted (MBCD+) conditions) is “decreased”.
As to `CC(C)(Sc1cc(C(C)(C)C)c(O)c(C(C)(C)C)c1)Sc1cc(C(C)(C)C)c(O)c(C(C)(C)C)c1` [probucol], in assay [1] (setting [8]), the “SASP (IL1A, IL1B) activation” value was “not activated”. For the same molecule, the SASP activity entry in assay [1] (oncogene-induced senescent cells (SEN (OIS)), probucol 10 μM) is on record as “increased”. In addition, the SASP activity entry in assay [1] (senescence-induced cells (SEN), probucol treatment) is reported as “increased”. Moreover, in assay [1], the “expression of CDKN2A or CDKN1A” value is given as “minimal effect”. Further, in assay [6] (setting [8]), the mTORC1 activation result was “not activated”. In addition, the mTORC1 activity entry in assay [6] (senescence-induced cells, probucol treatment) is “activation”. Besides, the “expression of lysosomal ABCA1 (LysoIP immunoblot)” value in assay [2] was “further enhanced”. Further, in assay [3], the “SASP factors (Mmp3, Mmp13, Cxcl1)” value was “upregulated”. For the same molecule, in assay [4] (setting [9]), the “Osteoarthritis Research Society International (OARSI) grades” value was “higher”; the “dynamic and static weight-bearing capacity” value was “impaired”; the hindlimb withdrawal threshold result was “reduced”. In assay [4], the “osteoarthritis progression / cartilage destruction in knee joints (Safranin O staining)” value is “worsened”; the “expression levels of SASP factors (IL6, MMP13) and senescence markers (p16, nuclear HMGB1)” value is given as “increased”; the “osteoarthritis-related pain symptoms / pain indicators” value is recorded as “worsened”. Further, the “cholesterol accumulation (lysosomal)” value in assay [5] (DNA damage-induced senescent cells (SEN), probucol 10 μM) was “promoted”.

The values above are taken from patent US20260240871A1, “PHARMACEUTICAL COMPOSITION FOR PREVENTION OR TREATMENT OF AGE-RELATED MUSCULOSKELETAL DISORDERS” (SEOUL NATIONAL UNIVERSITY R&DB FOUNDATION, priority 2023, published 2026).
